Results from patent publication US6403618B1, “Agent and method for controlling angiogenesis” (Novactyl, Inc., priority 2000, dated 2002).

Columns and labels:
LoVo cells = assay: Effects of picolinic acid on growth (total cell protein); format: cell-based
Method: (§1) Cells were plated at 1.5×10^5 cells/60-mm dish; 48 hours later, the medium was removed, and new media with or without 3 mM picolinic acid was added. Total cell protein was determined at the indicated times; each point is the average of triplicate measurements from 2 cultures.

WI-38 cells = assay: as above; format: cell-based
Method: as §1

KB cells = assay: as above; format: cell-based, human; details: 3 mM
Method: as §1

recombinant MPS-1 = recombinant MPS-1 (Homo sapiens, UniProt P42677); assay: Zinc dependent binding of MPS-1 to DNA, gel shift assays and 65Zn; format: biochemical
From the text: MPS-1 is a ubiquitous tumor marker and cell growth stimulator and is described in detail in the inventor's U.S. Pat. No. Re.35,585 (No. 5,243,041). MPS-1 has one zinc finger domain of the type CCCC. […] This is detected by a change in the electrophoretic mobility of MPS-1 under non-denaturing conditions. These experiments indicate that picolinic acid and derivatives should remove zinc and denature various types of zinc finger or zinc ring proteins, whether known or heretofore undiscovered, including viral proteins such as nucleocapsid p7 proteins, as will be explained further. Furthermore, the inventor has determined that any chemical compound, whether known or heretofore undiscovered, that will remove the zinc (or other metal) and denature the proteins or that will form a ternary complex (protein-zinc-chelator) can be effective as a therapeutic agent or as an autologous immune response modulator, as will be discussed in greater detail below.

LD-50 = details: in vivo
[1] = Stability experiments as preservative in foods and on fresh fruits; format: physicochemical; details: in foods and on the surface of fresh fruits
From the text: (§2) The chelating agents of the present invention can be used as preservatives in perishable items such as foods and pharmaceuticals and to prevent fungal growth on the surface of fresh fruits. Presently chemicals such as citrashine orthophenilphenol thiabendazole are used. […] Microbial and fungal growth is inhibited while the food components are unaffected. The preservative of the present invention has less likelihood of toxicity or untoward reactions if ingested that the present, complex chemical antifungals. The preferred concentration of picolinic acid or acceptable derivative for this use is approximately 1% to approximately 99%.

[2] = system: Microbial and fungal growth; assay: Preservative use in foods and on fresh fruits
From the text: as §2

[3] = system: papilloma virus ulcerative lesion; assay: Treatment of ulcerative lesion with topical picolinic acid; format: in vivo, horse
Method: The lesion was progressive, with total loss of hair over the area. The diagnosis was viral disease, i.e. papilloma virus, complicated by fungal infection. The horse was treated with conventional local antibiotic and chemical therapies for about four months.
An aqueous solution of 10% picolinic acid in deionized water was applied every other day with a cotton swab over and around the lesion. The treatment continued for 45 days. The course of the regression of the viral lesion was as follows: […]

human papilloma viruses = assay: Treatment of patients with papilloma virus skin lesions (common warts); format: in vivo
Method: Five patients ranging in age from 11 years to 52 years and each having at least one common wart induced by human papilloma viruses was treated with a topical preparation of picolinic acid. The topical preparation was either solution of 10% to 20% picolinic acid in deionized water or a topical ointment wherein 10% picolinic acid is incorporated into Aquaphor, i.e.1 g of picolinic acid in 10 g of Aquaphor.

recurrent plantar wart = assay: Treatment of virus-induced plantar ulcer; format: in vivo, human
Method: A patient with recurrent plantar wart of about 2 cm in diameter was treated with topical picolinic acid. The patient, a pathologist who had difficulty walking because of the pain caused by the ulcer, had experimented with numerous medications for more than three months without any significant results prior to treatment with the picolinic acid. It is relevant to note that many plantar ulcers are transformed into malignant tumors.
The patient was treated with a solution of 10% picolinic acid in deionized water for one week. […] They then were treated with 10% picolinic acid in Aquaphor. The ointment was placed on the ulcer and on a patch. The patch was replaced every 24 hours.

[4] = system: metastatic breast cancer lesions; assay: Treatment of metastatic disease to the skull from breast cancer; format: in vivo, human; details: topical 10% picolinic acid in Aquaphor, changed twice daily
Method: A person with metastatic breast cancer to the skin and bone of the skull was treated with a topical preparation of 10% picolinic acid in Aquaphor. The preparation was applied to the cancerous lesions and to a bandage and changed twice daily. The multiple cancer lesions were approximately 1 to 1.5 cm in diameter.

psoriasis = assay: Treatment of proliferative skin disorders; format: in vivo, human; details: topical, preliminary information
From the text: Several patients suffering from proliferative skin disorders such as psoriasis have been included in a recent ongoing study of the anti-proliferative effects of topical picolinic acid. […] The patients may be treated with a topical application of approximately 5% to 20% picolinic acid, or a derivative thereof, in an absorption base. Alternatively, the patient may be treated with a solution containing approximately 5% to 20% picolinic acid, or derivative, in deionized water. The topical preparation may be applied twice a day or in an alternative pharmacologically acceptable regimen.

metastatic cancer = assay: Systemic administration in metastatic cancer; format: in vivo; details: 00 gelatin capsules at 500 mg per capsule
From the text: A systemic preparation of a picolinic acid, its derivatives or analogs containing approximately 1% to 100% active ingredient may be administered orally, intravenously or by any acceptable route for the treatment of cancer and systemic infections. […] The preparation can be provided as a flavored oral solution. Likewise, an injectable form may be prepared.

normal cells = details: cited from earlier work
iron in the cells = details: cited from earlier work
transformed cells = details: cited from earlier work

From the text for actinic lesions: Two patients with actinic lesions (average of 5 lesions per patient, each lesion being approximately 3 mm to 5 mm in diameter) were diagnosed as requiring liquid nitrogen removal of the lesions. The patients received a daily application of 10% picolinic acid in Aquaphor.

With `O=C(O)c1ccccn1` [picolinic acid, 2-Pyridine carboxylic acid] the “growth of LoVo cells” value (LoVo cells; 3 mM picolinic acid, FIG. 2) was “inhibited”, the cytotoxicity (LoVo cells; 3 mM, longer exposure 48-72 hours) was “cytotoxicity and cell death was observed” and the “growth of normal WI-38 cells” value (WI-38 cells; 3 mM picolinic acid, within 24 hours) was “inhibited”. The toxic effects (WI-38 cells; 3 mM, up to 72 hours of treatment) was “no toxic effects”, the “cytotoxic effects relative to LoVo cells” value (KB cells) was “not as pronounced as in the case of LoVo cells” and the “growth and cytotoxicity compared with LoVo results” value (KB cells) was “Equivalent results were obtained”. For the same compound, the “removal of radioactive 65Zn from MPS-1” value (recombinant MPS-1; CCCC zinc finger, electrophoretic mobility, non-denaturing conditions) was “remove radioactive ^65Zn from MPS-1”, the “zinc dependent binding of recombinant MPS-1 to DNA” value (recombinant MPS-1; gel shift assays) was “inhibit” and the LD-50 (LD-50) was 140 grams/70 Kg. The stability as preservative [1] was “highly stable”, the “Microbial and fungal growth” value [2] was “inhibited” and the lesion appearance ([3]; 10% aqueous solution topical every other day, after 10 days) was “central necrosis”. For the same compound, the “diameter of the lesion” value ([3]; 10% aqueous solution topical, after 20 days, 3 inch at start) was “approximately 2 inches”, the “diameter of the lesion” value ([3]; 10% aqueous solution topical, after 30 days) was “about 1 inch” and the lesion outcome ([3]; 10% aqueous solution topical, at 45 days) was “resolved with some scar tissue”. The recurrence ([3]; after three additional months) was “without evidence of recurring disease”, the “resolution with ointment versus solution” value (human papilloma viruses; 10% picolinic acid in Aquaphor) was “faster resolution” and the wart appearance (human papilloma viruses; topical 10-20% solution or 10% Aquaphor ointment, after seven days) was “central necrosis of the wart occurred”. For the same compound, the “course of disease, 10% versus 20% solutions” value (human papilloma viruses; topical solution in deionized water) was “no significant difference”, the ulcer appearance (recurrent plantar wart; 10% solution in deionized water for one week) was “Central necrosis was noted” and the ulcer outcome (recurrent plantar wart; then 10% in Aquaphor with patch, after an additional three weeks) was “resolved”. The “time until lesions resolved with scar tissue” value [4] was “approximately 35 days”, the regression of psoriasis (psoriasis) was “significant effect in inducing regression” and the “control of metastatic cancer” value (metastatic cancer) was “effective”. For the same compound, the lesion outcome (actinic lesions; daily 10% picolinic acid in Aquaphor, approximately three weeks, two patients) was “completely cured”, the “effects on normal skin” value (actinic lesions; in vivo) was “without any effects on normal skin” and the toxic effects (normal cells; longer exposure, most normal cells) was “no toxic effects”. The cell cycle arrest (normal cells; short-term treatment) was “arrests normal cells in G1, (Go)”, the “incorporation of iron into the cells” value (iron in the cells) was “inhibits” and the “removal of radioiron from the cells” value (iron in the cells) was “effectively removes”. For the same compound, the cytotoxicity (transformed cells) was “cytotoxicity and cell death was observed” and the cell cycle arrest (transformed cells; short-term treatment) was “blocked in different phases of the cell cycle”.
